What was measured:
FAAH [1] = biological target: T1, FAAH (Rattus norvegicus, UniProt P97612); experiment: In vitro FAAH activity in rat brain membranes, 3H-AEA substrate, % of control; format: biochemical, Wistar rats; details: 100 nM test compound, low value = strong inhibitor
T1 construct: Frozen brains (without cerebellum) from Wistar rats were used; from tissue; host or cells: Wistar rat brain (without cerebellum), washed membrane pellets
T1 sequence (P97612 1-579): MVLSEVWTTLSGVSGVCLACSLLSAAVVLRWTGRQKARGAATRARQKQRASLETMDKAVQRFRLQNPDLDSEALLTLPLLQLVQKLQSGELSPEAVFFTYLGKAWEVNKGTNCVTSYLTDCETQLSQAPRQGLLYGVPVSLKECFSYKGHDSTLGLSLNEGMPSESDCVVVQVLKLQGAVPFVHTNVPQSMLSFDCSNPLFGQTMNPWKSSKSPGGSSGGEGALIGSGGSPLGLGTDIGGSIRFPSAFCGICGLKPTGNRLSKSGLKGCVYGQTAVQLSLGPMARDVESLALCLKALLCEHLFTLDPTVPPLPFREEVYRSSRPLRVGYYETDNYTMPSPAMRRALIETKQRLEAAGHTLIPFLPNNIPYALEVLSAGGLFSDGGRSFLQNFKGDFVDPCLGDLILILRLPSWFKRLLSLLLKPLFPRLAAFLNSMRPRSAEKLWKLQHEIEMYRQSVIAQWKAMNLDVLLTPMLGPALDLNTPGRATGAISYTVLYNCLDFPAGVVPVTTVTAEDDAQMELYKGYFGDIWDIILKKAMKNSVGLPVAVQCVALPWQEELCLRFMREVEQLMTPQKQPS
Procedure, shortened: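 FAAH activity measured as 3H-ethanolamine released from 2 μM [3H]AEA over 10 min by rat brain membrane preparation, after 15 min 37 °C preincubation with test compound at 10 or 0.1 μM. Charcoal-separated supernatant scintillation-counted; values expressed as % of control minus no-protein blank.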

FAAH [2] = biological target: T2, FAAH (Mus musculus, UniProt O08914); experiment: In vivo FAAH inhibition after oral dosing, remaining activity in brain homogenate (BRh, central nervous tissue); design: species or system NMRI mice; details: brain homogenate, 3 mg/kg, 8 h
T2 construct: A fragment of liver, left lung lobe and brain without cerebellum were removed; from tissue; host or cells: male NMRI mice; brain (without cerebellum) and liver homogenates
T2 sequence (O08914 1-579): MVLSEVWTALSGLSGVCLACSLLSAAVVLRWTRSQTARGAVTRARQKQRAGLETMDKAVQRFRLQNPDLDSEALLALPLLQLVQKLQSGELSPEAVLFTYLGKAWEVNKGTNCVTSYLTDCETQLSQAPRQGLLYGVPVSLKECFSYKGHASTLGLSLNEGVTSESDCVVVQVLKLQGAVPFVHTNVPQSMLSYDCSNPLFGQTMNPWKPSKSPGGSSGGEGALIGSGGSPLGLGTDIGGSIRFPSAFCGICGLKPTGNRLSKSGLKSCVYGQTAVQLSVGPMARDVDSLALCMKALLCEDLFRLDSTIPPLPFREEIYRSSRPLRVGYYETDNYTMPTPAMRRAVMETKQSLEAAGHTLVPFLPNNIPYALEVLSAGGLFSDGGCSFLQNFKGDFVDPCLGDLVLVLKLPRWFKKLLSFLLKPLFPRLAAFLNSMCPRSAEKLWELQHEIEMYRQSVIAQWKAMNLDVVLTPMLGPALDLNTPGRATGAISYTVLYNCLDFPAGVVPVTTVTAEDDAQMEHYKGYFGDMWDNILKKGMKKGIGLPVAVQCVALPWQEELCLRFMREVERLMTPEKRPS
Procedure, shortened: (§1)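 Remaining FAAH activity is given as % of vehicle-treated controls after blank subtraction, measured by radiolabelled AEA hydrolysis (2 μM AEA, 5 nM 3H-AEA, 37 °C) in brain (10 min) or liver (7 min) homogenates. These came from fasted male NMRI mice dosed orally at 30 or 3 mg/kg.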

FAAH [3] = biological target: T2, FAAH; experiment: In vivo FAAH inhibition after oral dosing, remaining activity in liver homogenate (LVh, peripheral tissue); design: species or system NMRI mice; details: liver homogenate, 3 mg/kg, 8 h
Procedure, shortened: as §1

Row | In Vitro FAAH activity, 100 nM (FAAH [1]) | In Vivo BRh 3 mg/kg 8 h, remaining FAAH activity (FAAH [2]) | In Vivo LVh 3 mg/kg 8 h, remaining FAAH activity (FAAH [3]) | Structure (SMILES)
1 | 0.3 % of control | 89.9 % of control | 116.5 % of control | Cl.N#Cc1ccc(Oc2ccc(-c3ncn(C(=O)N4CCN(c5ccccc5)CC4)n3)cc2)cc1 [Compound 145, 4-(4-(1-(4-phenylpiperazine-1-carbonyl)-1H-1,2,4-triazol-3-yl)phenoxy)benzonitrile hydrochloride]
2 | 55.1 % of control | 124.4 % of control | 103 % of control | NC(=O)c1ccc(Oc2ccc(-c3ncn(C(=O)N4CCOCC4)n3)cc2)cc1 [Compound 147, 4-(4-(1-(morpholine-4-carbonyl)-1H-1,2,4-triazol-3-yl)phenoxy)benzamide]
3 | 0.3 % of control | 113.7 % of control | 87.6 % of control | NC(=O)c1ccc(Oc2ccc(-c3ncn(C(=O)N4CCN(c5ccccc5)CC4)n3)cc2)cc1 [Compound 148, 4-(4-(1-(4-phenylpiperazine-1-carbonyl)-1H-1,2,4-triazol-3-yl)phenoxy)benzamide]
4 | 1.2 % of control | 5.6 % of control | 3.8 % of control | CN(Cc1ccccc1)C(=O)n1cnc(-c2ccc(F)cc2)c1 [Compound 150, N-benzyl-4-(4-fluorophenyl)-N-methyl-1H-imidazole-1-carboxamide]
5 | 0.4 % of control | 116.7 % of control | 65.8 % of control | CN(Cc1ccccc1)C(=O)n1cnc(-c2ccc(Oc3ccc(C(N)=O)cc3)cc2)n1 [Compound 151, N-benzyl-3-(4-(4-carbamoylphenoxy)phenyl)-N-methyl-1H-1,2,4-triazole-1-carboxamide]
6 | 0 % of control | 5.2 % of control | 3.5 % of control | COc1ccc(OCCN(C)C(=O)n2nnc3ccccc32)cc1 [Compound 157, N-(2-(4-methoxyphenoxy)ethyl)-N-methyl-1H-benzo[d][1,2,3]triazole-1-carboxamide]
7 | 92.8 % of control | 85.6 % of control | 108.6 % of control | CC1(C)COCN1C(=O)n1cnc(-c2ccc(Oc3ccc(C(N)=O)cc3)cc2)n1 [Compound 187, 4-(4-(1-(4,4-dimethyloxazolidine-3-carbonyl)-1H-1,2,4-triazol-3-yl)phenoxy)benzamide]
8 | 21 % of control | 60 % of control | 20.8 % of control | CN(Cc1ccccc1)C(=O)n1cnc(-c2cccc3ccccc23)n1 [Compound 191, N-benzyl-N-methyl-3-(naphthalen-1-yl)-1H-1,2,4-triazole-1-carboxamide]

Further lines, the compound ahead of its results:

Row | Structure (SMILES) | In Vitro FAAH activity, 100 nM (FAAH [1]) | In Vivo BRh 3 mg/kg 8 h, remaining FAAH activity (FAAH [2]) | In Vivo LVh 3 mg/kg 8 h, remaining FAAH activity (FAAH [3])
9 | O=C(N1CCN(c2ccccc2)CC1)n1cnc(-c2cccs2)n1 [Compound 155, (4-phenylpiperazin-1-yl)(3-(thiophen-2-yl)-1H-1,2,4-triazol-1-yl)methanone] | 0.4 % of control | 144.1 % of control | 108.2 % of control
10 | CN(CCOCc1ccccc1)C(=O)n1nnc2ccccc21 [Compound 156, N-(2-(benzyloxy)ethyl)-N-methyl-1H-benzo[d][1,2,3]triazole-1-carboxamide] | 0.1 % of control | 67.2 % of control | 24.4 % of control
11 | Cl.O=C(N1CCN(Cc2ccccc2)CC1)n1cnc(-c2cccs2)n1 [Compound 158, (4-benzylpiperazin-1-yl)(3-(thiophen-2-yl)-1H-1,2,4-triazol-1-yl)methanone hydrochloride] | 0.3 % of control | 92 % of control | 85.6 % of control
12 | CC1(C)COCN1C(=O)n1nnc2ccc(Br)cc21 [Compound 162, (6-bromo-1H-benzo[d][1,2,3]triazol-1-yl)(4,4-dimethyloxazolidin-3-yl)methanone] | 0 % of control | 0.9 % of control | 3.1 % of control
13 | CC1(C)COCN1C(=O)n1nnc2ccc(-c3cccc(C(N)=O)c3)cc21 [Compound 163, 3-(3-(4,4-dimethyloxazolidine-3-carbonyl)-3H-benzo[d][1,2,3]triazol-5-yl)benzamide] | 0.6 % of control | 6.3 % of control | 2.4 % of control
14 | O=C(N1CCS(=O)(=O)C1)n1nnc2ccccc21 [Compound 167, 1-[(1,1-dioxido-1,3-thiazolidin-3-yl)carbonyl]-1H-benzotriazole] | 96.2 % of control | 99.9 % of control | 104 % of control
15 | O=C(N1CCN(c2ccccc2)CC1)n1cnc(Cc2ccccc2)n1 [Compound 182, (3-benzyl-1H-1,2,4-triazol-1-yl)(4-phenylpiperazin-1-yl)methanone] | 0.6 % of control | 90.6 % of control | 111 % of control
16 | CC1(C)COCN1C(=O)n1cnc(-c2ccc(F)cc2F)n1 [Compound 183, (3-(2,4-difluorophenyl)-1H-1,2,4-triazol-1-yl)(4,4-dimethyloxazolidin-3-yl)methanone] | 102 % of control | 92.4 % of control | 78.1 % of control
17 | CC1(C)COCN1C(=O)n1cnc(-c2ccc(Cl)cc2)c1 [Compound 186, (4-(4-chlorophenyl)-1H-imidazol-1-yl)(4,4-dimethyloxazolidin-3-yl)methanone] | 96.5 % of control | 78.7 % of control | 37.7 % of control
18 | COc1ccc(-c2ncn(C(=O)N3COCC3(C)C)n2)cc1 [Compound 188, (4,4-dimethyloxazolidin-3-yl)(3-(4-methoxyphenyl)-1H-1,2,4-triazol-1-yl)methanone] | 103.3 % of control | 78.7 % of control | 89 % of control
19 | CC1(C)COCN1C(=O)n1cnc(-c2ccc(Cl)cc2)n1 [Compound 189, (3-(4-chlorophenyl)-1H-1,2,4-triazol-1-yl)(4,4-dimethyloxazolidin-3-yl)methanone] | 98.5 % of control | 105.9 % of control | 87.6 % of control
20 | C[C@@H](c1ccccc1)N(C)C(=O)n1nnc2ccccc21 [Compound 195, (S)—N-methyl-N-(1-phenylethyl)-1H-benzo[d][1,2,3]triazole-1-carboxamide] | 15.7 % of control | 9.1 % of control | 5.7 % of control

— patent publication US9353082B2, “Pharmaceutical compounds” (BIAL—PORTELA & CA, S.A., priority 2008, dated 2016)
